Measurements reported in ChEMBL document CHEMBL4811298, “Discovery of novel class of histone deacetylase inhibitors as potential anticancer agents” (Bioorg Med Chem, 2021).
Calls of active or inactive are those of the source. The rule behind the calls is not given here.

Tests used:
[1] = Half life in CD-1 mouse liver microsomes at 1 uM measured after 60 mins in presence of NADPH by LC-MS/MS analysis; type: ADME, Microsome
Histone deacetylase 4 = Histone deacetylase 4 (Homo sapiens, UniProt P56524); assay: Inhibition of N-terminal GST-tagged/C-terminal His-tagged human recombinant HDAC4 (627 to 1084 residues) expressed in baculovirus-infected Sf9 cells assessed as reduction in 7-amino-4-methylcoumarin release measured every 5 mins by fluorescence based analysis
Sequence of Histone deacetylase 4 (P56524 whole entry, the tested form may be a part): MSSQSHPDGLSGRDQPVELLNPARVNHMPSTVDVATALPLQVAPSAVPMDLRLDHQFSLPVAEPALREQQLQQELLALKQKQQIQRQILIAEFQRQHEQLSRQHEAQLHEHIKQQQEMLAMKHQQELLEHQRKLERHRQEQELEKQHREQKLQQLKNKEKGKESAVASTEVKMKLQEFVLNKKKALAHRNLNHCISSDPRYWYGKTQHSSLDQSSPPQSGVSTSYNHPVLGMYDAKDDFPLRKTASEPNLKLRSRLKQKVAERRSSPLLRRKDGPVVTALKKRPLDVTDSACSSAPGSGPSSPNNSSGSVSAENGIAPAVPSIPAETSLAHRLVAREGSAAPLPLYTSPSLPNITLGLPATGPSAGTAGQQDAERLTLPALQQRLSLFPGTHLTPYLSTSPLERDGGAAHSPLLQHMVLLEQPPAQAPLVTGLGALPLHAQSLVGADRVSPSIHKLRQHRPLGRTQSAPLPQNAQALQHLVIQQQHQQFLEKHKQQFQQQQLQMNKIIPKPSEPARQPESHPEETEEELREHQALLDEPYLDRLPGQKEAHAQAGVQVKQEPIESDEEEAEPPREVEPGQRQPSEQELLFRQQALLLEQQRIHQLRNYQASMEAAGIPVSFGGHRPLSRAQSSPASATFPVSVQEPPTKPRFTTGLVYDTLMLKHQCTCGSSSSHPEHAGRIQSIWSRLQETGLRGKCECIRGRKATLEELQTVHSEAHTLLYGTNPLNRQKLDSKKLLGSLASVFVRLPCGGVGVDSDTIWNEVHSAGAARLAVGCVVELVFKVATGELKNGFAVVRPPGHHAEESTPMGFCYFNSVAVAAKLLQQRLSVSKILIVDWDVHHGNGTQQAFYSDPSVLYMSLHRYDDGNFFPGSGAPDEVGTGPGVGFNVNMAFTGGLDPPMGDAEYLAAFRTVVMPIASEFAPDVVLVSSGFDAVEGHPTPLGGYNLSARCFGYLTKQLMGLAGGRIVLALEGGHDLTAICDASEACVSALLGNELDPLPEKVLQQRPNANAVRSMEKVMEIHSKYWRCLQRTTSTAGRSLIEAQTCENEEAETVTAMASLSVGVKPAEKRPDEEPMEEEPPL

Histone deacetylase 7 = biological target: T1, Histone deacetylase 7 (Homo sapiens, UniProt Q8WUI4); assay: Inhibition of N-terminal GST-tagged human HDAC7 (518 to end residues) expressed in baculovirus-infected Sf9 cells assessed as reduction in 7-amino-4-methylcoumarin release measured every 5 mins by fluorescence based analysis
T1 sequence (Q8WUI4 whole entry): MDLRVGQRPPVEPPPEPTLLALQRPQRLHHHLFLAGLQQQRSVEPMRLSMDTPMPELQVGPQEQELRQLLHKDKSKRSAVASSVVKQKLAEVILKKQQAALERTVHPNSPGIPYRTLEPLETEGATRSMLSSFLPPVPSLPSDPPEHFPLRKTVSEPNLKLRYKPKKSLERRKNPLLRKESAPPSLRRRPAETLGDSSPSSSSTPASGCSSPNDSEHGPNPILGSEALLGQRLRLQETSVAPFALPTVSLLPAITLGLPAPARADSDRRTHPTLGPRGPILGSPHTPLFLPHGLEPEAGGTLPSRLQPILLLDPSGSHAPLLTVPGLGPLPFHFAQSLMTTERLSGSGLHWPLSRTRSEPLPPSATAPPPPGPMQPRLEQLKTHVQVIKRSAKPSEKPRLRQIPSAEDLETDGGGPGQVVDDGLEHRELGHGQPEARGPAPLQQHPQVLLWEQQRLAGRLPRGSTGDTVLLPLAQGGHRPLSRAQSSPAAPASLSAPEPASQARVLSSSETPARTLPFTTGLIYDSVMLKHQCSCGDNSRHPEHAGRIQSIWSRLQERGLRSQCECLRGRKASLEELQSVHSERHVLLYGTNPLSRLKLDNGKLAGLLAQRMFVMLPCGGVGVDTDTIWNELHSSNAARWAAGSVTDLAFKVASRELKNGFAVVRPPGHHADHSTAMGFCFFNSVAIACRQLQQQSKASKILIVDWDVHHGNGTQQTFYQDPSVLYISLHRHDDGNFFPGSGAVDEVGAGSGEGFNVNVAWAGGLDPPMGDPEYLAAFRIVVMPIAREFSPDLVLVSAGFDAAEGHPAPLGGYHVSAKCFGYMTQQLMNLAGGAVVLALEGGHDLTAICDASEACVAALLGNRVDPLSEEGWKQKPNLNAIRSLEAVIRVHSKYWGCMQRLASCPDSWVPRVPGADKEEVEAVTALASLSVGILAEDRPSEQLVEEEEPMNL

MCF7 [2] = assay: Induction of apoptosis in human MCF7 cells assessed as reduction in Bcl3 gene expression at 3 uM incubated for 24 hrs by whole transcriptome analysis; type: functional, cell-based
MCF7 [3] = assay: Induction of cell cycle arrest in human MCF7 cells assessed as accumulation at subG1 phase at 1 uM incubated for 24 to 72 hrs by PI staining based flow cytometric analysis; type: functional; details: time 24-72 hrs
MCF7 [4] = assay: Induction of cell cycle arrest in human MCF7 cells assessed downregulation of CDK6 gene expression at 3 uM incubated for 24 hrs by whole transcriptome analysis; type: functional, cell-based
[5] = biological target: Histone deacetylase (Homo sapiens) (UniProt Q13547+O15379+Q9UBN7+Q92769+Q9UQL6+Q8WUI4+Q9BY41+Q96DB2+P56524+Q9UKV0+Q969S8); assay: Inhibition of HDAC in human MCF7 cells assessed as increase in acetylated histone H4 mRNA level at 3 uM incubated for 24 hrs by whole transcriptome analysis; type: cell-based
MCF7 [6] = assay: Induction of cell cycle arrest in human MCF7 cells assessed downregulation of CDK1 gene expression at 3 uM incubated for 24 hrs by whole transcriptome analysis; type: functional, cell-based
MCF7 [7] = assay: Induction of cell cycle arrest in human MCF7 cells assessed downregulation of E2F1 gene expression at 3 uM incubated for 24 hrs by whole transcriptome analysis; type: functional, cell-based
Homo sapiens [8] = species: Homo sapiens; assay: Selectivity ratio of IC50 for inhibition of C-terminal His-tagged human recombinant full length HDAC3 (1 to 428 residues)/N-terminal GST-tagged human recombinant NCOR2 (395 to 489 residues) expressed in baculovirus-infected Sf9 cells to IC50 for inhibition of C-terminal FLAG/His-tagged human recombinant HDAC1 (1 to 482 residues) expressed in baculovirus-infected Sf9 cells
Homo sapiens [9] = species: Homo sapiens; assay: (§1) Selectivity ratio of IC50 for inhibition of N-terminal GST-tagged/C-terminal His-tagged human recombinant HDAC4 (627 to 1084 residues) expressed in baculovirus-infected Sf9 cells to IC50 for inhibition of C-terminal FLAG/His-tagged human recombinant HDAC1 (1 to 482 residues) expressed in baculovirus-infected Sf9 cells
Homo sapiens [10] = species: Homo sapiens; assay: as §1, with “6XHis-tagged” for “FLAG/His-tagged”, “full length HDAC2” for “HDAC1”, “488” for “482”
Homo sapiens [11] = species: Homo sapiens; assay: Selectivity ratio of IC50 for inhibition of N-terminal GST-tagged human recombinant full length HDAC5 expressed in baculovirus-infected Sf9 cells to IC50 for inhibition of C-terminal 6XHis-tagged human recombinant full length HDAC2 (1 to 488 residues) expressed in baculovirus-infected Sf9 cells
Homo sapiens [12] = species: Homo sapiens; assay: Selectivity ratio of IC50 for inhibition of N-terminal GST-tagged human HDAC7 (518 to end residues) expressed in baculovirus-infected Sf9 cells to IC50 for inhibition of C-terminal 6XHis-tagged human recombinant full length HDAC2 (1 to 488 residues) expressed in baculovirus-infected Sf9 cells

- half-life at 1 µM [1]: 17.6 min
- IC50 (Histone deacetylase 4): > 10 µM
- IC50 (Histone deacetylase 7): > 10 µM
- inhibition [5]: Active
Compound: N=C(NO)c1ccc2nc(-c3cccc(-c4cn5ccccc5n4)c3)[nH]c2c1
- Activity (MCF7 [2]): Active
- Activity (MCF7 [3]): Active
- Activity (MCF7 [4]): Active
- Activity (MCF7 [6]): Active
- Activity (MCF7 [7]): Active
- Ratio IC50 (Homo sapiens [8]): > 44
- Ratio IC50 (Homo sapiens [9]): > 44
- Ratio IC50 (Homo sapiens [10]): > 44
- Ratio IC50 (Homo sapiens [11]): > 44
- Ratio IC50 (Homo sapiens [12]): > 44
